Results published in PubChem BioAssay AID296 (DTP/NCI, 2004).
Records with an inconclusive call do not appear.

Tested on: MX-1 breast xenograft, nude mice, tumor weight T/C
Test: NCI In Vivo Anticancer Drug Screen. Data for tumor model Human Mammary Carcinoma MX-1 Xenograft (intrarenal inoculation) in NU/NU Swiss (nude) mice
Settings: endpoint: mean tumor weight change, higher = larger tumour
Procedure, shortened: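 Antitumour effect measured in vivo against vehicle controls, expressed as T/C.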

[1] = dose: 150.0 mg/kg/injection, schedule: Q04DX003 (ip), vehicle: saline with Tween-80
[2] = dose: 300.0 mg/kg/injection, schedule: Q04DX003 (ip), vehicle: saline with Tween-80
[3] = dose: 300.0 mg/kg/injection, schedule: Q04DX003 (sc), vehicle: saline with Tween-80
[4] = dose: 1200.0 mg/kg/injection, schedule: Q04DX003 (sc), vehicle: saline with Tween-80
[5] = dose: 600.0 mg/kg/injection, schedule: Q04DX003 (sc), vehicle: saline with Tween-80
[6] = dose: 2400.0 mg/kg/injection, schedule: Q04DX003 (sc), vehicle: saline with Tween-80
[7] = dose: 25.0 mg/kg/injection, schedule: Q01DX010 (sc), vehicle: Klucel (hydroxypropylcellulose) (HPC)

With `O=C(NP(=O)(N1CC1)N1CC1)c1cc(I)ccc1I` the T/C (dose: 37.5 mg/kg/injection, schedule: Q04DX003 (sc), vehicle: saline) was 23 % of control, the T/C (dose: 75.0 mg/kg/injection, schedule: Q04DX003 (sc), vehicle: suspension in saline) was -60 % of control and the T/C (dose: 150.0 mg/kg/injection, schedule: Q04DX003 (sc), vehicle: saline) was -9 % of control. For the same compound, the T/C (dose: 150.0 mg/kg/injection, schedule: Q04DX003 (sc), vehicle: suspension in saline) was 11 % of control, the T/C (dose: 300.0 mg/kg/injection, schedule: Q04DX003 (sc), vehicle: saline) was -100 % of control and the T/C (dose: 300.0 mg/kg/injection, schedule: Q04DX003 (sc), vehicle: suspension in saline) was -27 % of control. For the same compound, the T/C (dose: 600.0 mg/kg/injection, schedule: Q04DX003 (sc), vehicle: suspension in saline) was 2 % of control.

For `c1ccc(OCC2CO2)c(OCC2CO2)c1` (stereo not drawn), the T/C [1] was 95 % of control and the T/C [2] was 99 % of control.

`Oc1cc2ccccc2c(-c2c(O)c(O)cc3ccccc23)c1O` was tested, and the T/C (dose: 150.0 mg/kg/injection, schedule: Q04DX003 (sc), vehicle: saline with Tween-80) was 162 % of control, the T/C [3] was 151 % of control and the T/C [4] was 96 % of control.

With `CCOC(=O)C1(c2ccccc2)C(=O)Oc2ccccc21` (stereo not drawn) the T/C [3] was 99 % of control, the T/C [5] was 103 % of control and the T/C [4] was 101 % of control. For the same compound, the T/C [6] was 99 % of control.

`[N-]=[N+]=C1N=CN=C1c1ncn[nH]1` was tested, and the T/C (dose: 12.5 mg/kg/injection, schedule: Q01DX010 (sc), vehicle: Klucel (hydroxypropylcellulose) (HPC)) was 121 % of control and the T/C [7] was 76 % of control.

For `O=c1cc(-c2ccccc2)[nH]c2c1CCCC2`, the T/C [3] was 54 % of control, the T/C [5] was 53 % of control and the T/C [4] was 65 % of control. The T/C [6] was 96 % of control.

With `CCCCc1ccc2nc(NC(=O)OC)[nH]c2c1` the T/C (dose: 200.0 mg/kg/injection, schedule: Q01DX010 (sc), vehicle: saline with Tween-80) was 109 % of control, the T/C (dose: 400.0 mg/kg/injection, schedule: Q01DX010 (sc), vehicle: saline with Tween-80) was 69 % of control and the T/C (dose: 800.0 mg/kg/injection, schedule: Q01DX010 (sc), vehicle: saline with Tween-80) was 48 % of control.

With `Nc1ccc2ccc(NS(=O)(=O)N3CCCCC3)cc2c1` the T/C [1] was 110 % of control, the T/C [2] was 72 % of control and the T/C (dose: 600.0 mg/kg/injection, schedule: Q04DX003 (ip), vehicle: saline with Tween-80) was 86 % of control. The T/C (dose: 1200.0 mg/kg/injection, schedule: Q04DX003 (ip), vehicle: saline with Tween-80) was 92 % of control.

In the case of `NCCCNCCSP(=O)(O)O`, the T/C (dose: 100.0 mg/kg/injection, schedule: Q04DX003 (sc), vehicle: saline) is reported as 98 % of control, the T/C (dose: 200.0 mg/kg/injection, schedule: Q04DX003 (sc), vehicle: saline) is reported as 80 % of control and the T/C (dose: 400.0 mg/kg/injection, schedule: Q04DX003 (sc), vehicle: saline) is reported as 91 % of control.

With `COC(=O)Nc1cccc(-c2nc3ccc(NC(=O)OC)cc3c(=O)n2-c2ccccc2)c1` the T/C [7] was 87 % of control, the T/C (dose: 100.0 mg/kg/injection, schedule: Q01DX010 (sc), vehicle: Klucel (hydroxypropylcellulose) (HPC)) was 33 % of control and the T/C (dose: 400.0 mg/kg/injection, schedule: Q01DX010 (sc), vehicle: Klucel (hydroxypropylcellulose) (HPC)) was 123 % of control.

For `NC(=O)/C=C/c1c[nH]c2nccnc12`, the T/C (dose: 25.0 mg/kg/injection, schedule: Q04DX003 (sc), vehicle: water) was 98 % of control and the T/C (dose: 50.0 mg/kg/injection, schedule: Q04DX003 (sc), vehicle: water) was 46 % of control.

For `COc1ccc2c(c1)CCC(c1ccccc1)=C2c1ccc(OCCN2CCCC2)cc1`, the T/C (dose: 25.0 mg/kg/injection, schedule: Q04DX003 (sc), vehicle: Klucel (hydroxypropylcellulose) (HPC)) was 79 % of control, the T/C (dose: 50.0 mg/kg/injection, schedule: Q04DX003 (sc), vehicle: Klucel (hydroxypropylcellulose) (HPC)) was 72 % of control and the T/C (dose: 100.0 mg/kg/injection, schedule: Q04DX003 (sc), vehicle: Klucel (hydroxypropylcellulose) (HPC)) was 70 % of control. For the same compound, the T/C (dose: 200.0 mg/kg/injection, schedule: Q04DX003 (sc), vehicle: Klucel (hydroxypropylcellulose) (HPC)) was 67 % of control.

With `Clc1ccc(C2SC=Cc3ccccc32)cc1` (stereo not drawn) the T/C (dose: 600.0 mg/kg/injection, schedule: Q04DX003 (sc), vehicle: Klucel (hydroxypropylcellulose) (HPC)) was 90 % of control and the T/C (dose: 1200.0 mg/kg/injection, schedule: Q04DX003 (sc), vehicle: Klucel (hydroxypropylcellulose) (HPC)) was 115 % of control.
